Test results as given in US6495591B1, “Fungal efflux pump inhibitors” (Essential Therapeutics, Inc., priority 1997, dated 2002).
Like-named read-outs stand apart in the source and are kept apart here.

How the values were obtained:
Assay type in all cases: cell-based
[1] = system: YEM 17 C. glabrata, CgCDR up; conditions: 24 hrs, 80% inhibition; for MIC of compound in the presence of fluconazole (+): 1/8 × MIC of fluconazole
[2] = system: YEM 15 C. albicans, CDR1CDR2 up; experiment: microbe, parasite or virus in culture; conditions: YEM 15, 24 hrs, 80% inhibition; for MIC of compound in the presence of fluconazole (+): 1/8 × MIC of fluconazole
[3] = system: YEM 30 C. albicans wt; experiment: FEPI MIC with/without 1/8 fluconazole MIC at 24 hrs (Table 11)
[4] = system: Aspergillus fumigatus; experiment: FEPI MICs in combination with 1/4 the azole's MIC (Table 12); design: FEPI MIC (alone): unit not given here; conditions: for FEPI MIC with itraconazole, 60% Inh / FEPI MIC with itraconazole, 80% Inh: itraconazole 0.063 μg/ml (1/4 MIC); for FEPI MIC with ketoconazole, 60% Inh / FEPI MIC with ketoconazole, 80% Inh: ketoconazole 4 μg/ml (1/4 MIC); for FEPI MIC (alone): no azole, 35° C., CM Broth
Procedure: The combinations were tested against a series of Candida strain with known expression of efflux pumps or with complete deletion of all known pumps and Aspergillus fumigatus. Results are reported as minimum inhibitory concentration (MIC) of […] in the presence or absence of […]. A total of 27 distinct milbemycins were studied.

[5] = system: YEM 27 C. albicans ΔCDR1ΔCDR2 ΔBENΔFLU1; experiment: microbe, parasite or virus in culture; conditions: YEM 27, 24 hrs, 80% inhibition; for MIC of compound in the presence of fluconazole (+): 1/8 × MIC of fluconazole
[6] = system: YEM 24 C. albicans ΔCDR1, ΔCDR2; experiment: microbe, parasite or virus in culture; conditions: YEM 24, 24 hrs, 80% inhibition; for MIC of compound in the presence of fluconazole (+): 1/8 × MIC of fluconazole
[7] = system: YEM 13 C. albicans BEN up; experiment: microbe, parasite or virus in culture; conditions: YEM 13, 24 hrs, 80% inhibition; for MIC of compound in the presence of fluconazole (+): 1/8 × MIC of fluconazole
[8] = system: YEM 53 C. krusei; experiment: FEPI MIC with/without 1/8 fluconazole MIC at 24 hrs (Table 11)
[9] = system: YEM 51 C. glabrata wt; experiment: as above
[10] = YEM 30, 1/8 × MIC of fluconazole, 24 hrs, 80% inhibition
[11] = fluconazole 32 μg/ml (1/4 MIC), 60% inhibition
[12] = fluconazole 32 μg/ml (1/4 MIC), 80% inhibition
[13] = YEM 53, 1/8 × MIC of fluconazole, 24 hrs, 80% inhibition
[14] = YEM 51, 1/8 × MIC of fluconazole, 24 hrs, 80% inhibition

Molecule | MIC of compound in the presence of fluconazole (+) [1] | MIC of compound in the absence of fluconazole (−) [1] | MIC of compound in the presence of fluconazole (+) [2] | MIC of compound in the absence of fluconazole (−) [2] | MIC of compound in the presence of fluconazole (+) [3, 10] | MIC of compound in the absence of fluconazole (−) ([3]; YEM 30, 24 hrs, 80% inhibition) | FEPI MIC with fluconazole, 60% Inh [4, 11] | FEPI MIC with itraconazole, 60% Inh ([4]; 60% inhibition) | FEPI MIC with itraconazole, 80% Inh ([4]; 80% inhibition) | FEPI MIC with ketoconazole, 60% Inh ([4]; 60% inhibition) | FEPI MIC with ketoconazole, 80% Inh ([4]; 80% inhibition) | FEPI MIC (alone) ([4]; 80% inhibition) | MIC of compound in the presence of fluconazole (+) [5] | MIC of compound in the absence of fluconazole (−) [5] | MIC of compound in the presence of fluconazole (+) [6] | MIC of compound in the absence of fluconazole (−) [6] | MIC of compound in the presence of fluconazole (+) [7] | MIC of compound in the absence of fluconazole (−) [7] | MIC of compound in the absence of fluconazole (−) ([8]; YEM 53, 24 hrs, 80% inhibition) | MIC of compound in the absence of fluconazole (−) ([9]; YEM 51, 24 hrs, 80% inhibition) | further results
8-Methyl-5,6-dihydroxymilbemycin β1 [Compound 19] | 64 µg/mL | > 64 µg/mL | ≦0.03 | > 64 µg/mL | ≦0.03 | 8 µg/mL | 32 | 8 | >64 | ≦0.063 | ≦0.063 | 64 | 16 µg/mL | > 64 µg/mL | 32 µg/mL | > 64 µg/mL | 16 µg/mL | > 64 µg/mL | > 64 µg/mL | > 64 µg/mL | FEPI MIC with fluconazole, 80% Inh [4, 12]: 64; MIC of compound in the presence of fluconazole (+) [8, 13]: 8 µg/mL; MIC of compound in the presence of fluconazole (+) [9, 14]: > 64 µg/mL
8-Methyl-8-deoxymilbemycin β1 [Compound 24] | 1 µg/mL | > 64 µg/mL | ≦0.03 | > 64 µg/mL | ≦0.03 | > 64 µg/mL | 64 | 64 | 64 | ≦0.063 | ≦0.063 | 64 | 64 µg/mL | > 64 µg/mL | > 64 µg/mL | > 64 µg/mL | 64 µg/mL | > 64 µg/mL | > 64 µg/mL | > 64 µg/mL | FEPI MIC with fluconazole, 80% Inh [4, 12]: 64; MIC of compound in the presence of fluconazole (+) [8, 13]: > 64 µg/mL; MIC of compound in the presence of fluconazole (+) [9, 14]: 0.125 µg/mL
CC[C@H](C)[C@H]1O[C@]2(CC[C@@H]1C)C[C@@H]1C[C@@H](C/C=C(\C)[C@@H](O[C@H]3C[C@H](OC)[C@@H](O[C@H]4C[C@H](OC)[C@@H](O)[C@H](C)O4)[C@H](C)O3)[C@@H](C)/C=C/C=C3\CO[C@@H]4[C@H](O)C(C)=C[C@@H](C(=O)O1)[C@]34O)O2 [Compound 1, Ivermectin B1a] | > 64 µg/mL | > 64 µg/mL | > 64 µg/mL | > 64 µg/mL | – | > 64 µg/mL | – | >64 | >64 | >64 | >64 | >64 | 64 µg/mL | > 64 µg/mL | > 64 µg/mL | > 64 µg/mL | > 64 µg/mL | > 64 µg/mL | > 64 µg/mL | > 64 µg/mL | MIC of compound in the presence of fluconazole (+) [3]: ≦0.03; FEPI MIC with fluconazole, 60% Inh [4]: >64; FEPI MIC with fluconazole, 80% Inh [4]: >64; MIC of compound in the presence of fluconazole (+) [8]: 8 µg/mL; MIC of compound in the presence of fluconazole (+) [9]: 64 µg/mL
